Laboratory results reported in ChEMBL document CHEMBL5696442, “Discovery of type II inhibitors of TGFβ-activated kinase 1 (TAK1) and mitogen-activated protein kinase kinase kinase kinase 2 (MAP4K2)” (J Med Chem, 2015).
The source made the active and inactive calls. The calls are words filed in the database; no cut-off is given here.

Experiments:
[1] = target: Epidermal growth factor receptor (Homo sapiens) (UniProt P00533); assay: Inhibition of EGFR Lys1 labeling site in human A-375 cells at 0.05 uM by KiNativ Profiling analysis relative to control; format: cell-based
[2] = target: Calcium/calmodulin-dependent protein kinase type II subunit alpha (Homo sapiens) (UniProt Q9UQM7); assay: Inhibition of CAMK2a K2 labeling site in human Huh-7 cells at 1 uM by KiNativ Profiling analysis relative to control; format: cell-based
[3] = target: Calcium/calmodulin-dependent protein kinase type 1 (Homo sapiens) (UniProt Q14012); assay: Inhibition of CaMK1a K1 labeling site in human Huh-7 cells at 10 uM by KiNativ Profiling analysis relative to control; format: cell-based
[4] = target: SRSF protein kinase 3 (Homo sapiens) (UniProt Q9UPE1); assay: Inhibition of SRPK3 (unknown origin) at 10 uM by Ambit Kinomescan binding assay
[5] = target: T1, Ephrin type-B receptor 4 (Homo sapiens) (UniProt P54760); assay: Inhibition of EPHB4 (unknown origin) at 10 uM by Ambit Kinomescan binding assay
T1 sequence (whole entry): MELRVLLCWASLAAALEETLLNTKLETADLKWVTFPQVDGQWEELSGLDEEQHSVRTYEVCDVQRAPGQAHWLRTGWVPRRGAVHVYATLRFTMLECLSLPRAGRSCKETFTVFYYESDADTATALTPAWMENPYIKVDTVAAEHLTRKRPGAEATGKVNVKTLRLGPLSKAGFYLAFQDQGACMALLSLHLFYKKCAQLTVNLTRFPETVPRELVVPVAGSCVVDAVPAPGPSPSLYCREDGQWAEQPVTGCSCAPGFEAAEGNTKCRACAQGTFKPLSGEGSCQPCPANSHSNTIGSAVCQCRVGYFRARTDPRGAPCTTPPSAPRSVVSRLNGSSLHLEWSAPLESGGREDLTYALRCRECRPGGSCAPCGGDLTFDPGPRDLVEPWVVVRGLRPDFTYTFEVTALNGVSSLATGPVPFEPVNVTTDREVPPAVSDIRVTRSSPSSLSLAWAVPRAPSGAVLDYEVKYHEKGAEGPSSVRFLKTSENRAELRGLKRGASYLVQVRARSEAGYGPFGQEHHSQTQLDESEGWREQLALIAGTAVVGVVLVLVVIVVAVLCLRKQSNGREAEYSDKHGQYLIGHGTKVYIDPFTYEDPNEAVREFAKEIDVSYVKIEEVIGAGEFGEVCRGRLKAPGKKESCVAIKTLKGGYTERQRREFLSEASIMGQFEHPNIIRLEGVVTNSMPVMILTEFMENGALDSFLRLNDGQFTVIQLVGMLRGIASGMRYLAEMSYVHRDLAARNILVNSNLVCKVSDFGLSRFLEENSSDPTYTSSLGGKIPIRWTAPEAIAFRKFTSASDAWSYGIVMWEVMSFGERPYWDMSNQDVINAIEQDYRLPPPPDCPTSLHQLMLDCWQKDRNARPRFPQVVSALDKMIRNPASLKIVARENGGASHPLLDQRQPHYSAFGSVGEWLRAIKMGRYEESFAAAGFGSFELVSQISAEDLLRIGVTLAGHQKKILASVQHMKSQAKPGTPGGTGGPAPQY

[6] = target: Cyclin-dependent kinase 5 (Homo sapiens) (UniProt Q00535); assay: Inhibition of CDK5 K2 labeling site harbouring DLKPQNLLINR in human Huh-7 cells at 1 uM by KiNativ Profiling analysis relative to control; format: cell-based
[7] = target: Ribosomal protein S6 kinase alpha-6 (Homo sapiens) (UniProt Q9UK32); assay: Inhibition of N-terminal RPS6KA6 kinase domain 1 (unknown origin) at 10 uM by Ambit Kinomescan binding assay
[8] = target: Serine/threonine-protein kinase PAK 6 (Homo sapiens) (UniProt Q9NQU5); assay: Inhibition of PAK6 (unknown origin) at 10 uM by Ambit Kinomescan binding assay
[9] = target: DNA-PK/Ku70/Ku85 (Homo sapiens) (UniProt P78527+P12956+P13010); assay: Inhibition of DNAPK ATP labeling site harbouring GHDEREHPFLVKGGEDLRQDQR in human A-375 cells at 0.05 uM by KiNativ Profiling analysis relative to control; format: cell-based
[10] = system: Tyrosine-protein kinase ABL1 (Homo sapiens), P00519 [H396P]; assay: Inhibition of nonphosphorylated ABL1 H396P mutant (unknown origin) at 1 uM by Ambit Kinomescan binding assay relative to control
[11] = system: Fibroblast growth factor receptor 3 (Homo sapiens), P22607 [G697C]; assay: Inhibition of FGFR3 G697C mutant (unknown origin) at 1 uM by Ambit Kinomescan binding assay relative to control; values are per cent of control
[12] = target: Dual specificity mitogen-activated protein kinase kinase 2 (Homo sapiens) (UniProt P36507); assay: Inhibition of MAP2K2 Lys2 labeling site in human Huh-7 cell lysate at 1 uM by KiNativ Profiling analysis relative to control; format: subcellular
[13] = target: Mitogen-activated protein kinase kinase kinase kinase 4 (Homo sapiens, UniProt O95819); assay: Inhibition of ZC1/HGK Lys1 labeling site in human Huh-7 cell lysate at 1 uM by KiNativ Profiling analysis relative to control; format: subcellular
[14] = target: Serine/threonine-protein kinase OSR1 (Homo sapiens) (UniProt O95747); assay: Inhibition of OSR1 Lys2 labeling site in human Huh-7 cells at 1 uM by KiNativ Profiling analysis relative to control
[15] = target: Ribosomal protein S6 kinase alpha-1 (Homo sapiens) (UniProt Q15418); assay: Inhibition of RSK1 domain2 Lys2 labeling site in human Huh-7 cell lysate at 1 uM by KiNativ Profiling analysis relative to control; format: subcellular

Dual specificity mitogen-activated protein kinase kinase 2 (Homo sapiens), sequence (P36507 whole entry): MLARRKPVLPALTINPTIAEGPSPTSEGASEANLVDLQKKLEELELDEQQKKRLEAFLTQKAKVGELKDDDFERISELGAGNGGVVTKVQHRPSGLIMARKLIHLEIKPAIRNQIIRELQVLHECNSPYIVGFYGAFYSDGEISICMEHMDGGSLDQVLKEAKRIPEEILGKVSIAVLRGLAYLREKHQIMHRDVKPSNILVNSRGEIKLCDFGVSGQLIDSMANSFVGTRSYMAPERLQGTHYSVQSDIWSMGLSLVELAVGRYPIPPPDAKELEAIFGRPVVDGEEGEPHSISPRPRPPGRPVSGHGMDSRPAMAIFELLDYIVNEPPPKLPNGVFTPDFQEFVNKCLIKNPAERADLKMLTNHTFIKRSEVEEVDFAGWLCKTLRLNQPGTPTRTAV
Fibroblast growth factor receptor 3 (Homo sapiens), P22607 [G697C], sequence (P22607 whole entry G697C): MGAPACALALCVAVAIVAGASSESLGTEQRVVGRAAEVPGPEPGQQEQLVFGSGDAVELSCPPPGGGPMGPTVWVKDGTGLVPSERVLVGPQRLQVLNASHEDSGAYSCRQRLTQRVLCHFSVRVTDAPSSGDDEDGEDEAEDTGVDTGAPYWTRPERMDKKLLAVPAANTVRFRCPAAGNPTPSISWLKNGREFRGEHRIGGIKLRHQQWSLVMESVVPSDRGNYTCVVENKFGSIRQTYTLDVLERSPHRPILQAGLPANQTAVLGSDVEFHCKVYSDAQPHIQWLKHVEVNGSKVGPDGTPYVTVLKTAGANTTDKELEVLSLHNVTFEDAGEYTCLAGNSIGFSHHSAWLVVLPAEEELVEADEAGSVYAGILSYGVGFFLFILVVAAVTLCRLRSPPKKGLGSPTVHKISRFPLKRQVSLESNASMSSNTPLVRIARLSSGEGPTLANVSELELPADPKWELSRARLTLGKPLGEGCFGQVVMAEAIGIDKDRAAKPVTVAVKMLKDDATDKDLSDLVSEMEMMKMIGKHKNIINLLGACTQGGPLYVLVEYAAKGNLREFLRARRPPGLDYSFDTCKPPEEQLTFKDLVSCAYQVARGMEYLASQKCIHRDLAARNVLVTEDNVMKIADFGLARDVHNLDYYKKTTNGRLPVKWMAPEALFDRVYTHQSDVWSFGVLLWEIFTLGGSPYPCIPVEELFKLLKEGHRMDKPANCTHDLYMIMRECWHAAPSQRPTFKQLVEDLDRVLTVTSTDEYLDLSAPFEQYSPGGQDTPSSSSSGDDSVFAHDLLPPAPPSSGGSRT
Mitogen-activated protein kinase kinase kinase kinase 4, sequence (O95819 2-1239 limits assumed): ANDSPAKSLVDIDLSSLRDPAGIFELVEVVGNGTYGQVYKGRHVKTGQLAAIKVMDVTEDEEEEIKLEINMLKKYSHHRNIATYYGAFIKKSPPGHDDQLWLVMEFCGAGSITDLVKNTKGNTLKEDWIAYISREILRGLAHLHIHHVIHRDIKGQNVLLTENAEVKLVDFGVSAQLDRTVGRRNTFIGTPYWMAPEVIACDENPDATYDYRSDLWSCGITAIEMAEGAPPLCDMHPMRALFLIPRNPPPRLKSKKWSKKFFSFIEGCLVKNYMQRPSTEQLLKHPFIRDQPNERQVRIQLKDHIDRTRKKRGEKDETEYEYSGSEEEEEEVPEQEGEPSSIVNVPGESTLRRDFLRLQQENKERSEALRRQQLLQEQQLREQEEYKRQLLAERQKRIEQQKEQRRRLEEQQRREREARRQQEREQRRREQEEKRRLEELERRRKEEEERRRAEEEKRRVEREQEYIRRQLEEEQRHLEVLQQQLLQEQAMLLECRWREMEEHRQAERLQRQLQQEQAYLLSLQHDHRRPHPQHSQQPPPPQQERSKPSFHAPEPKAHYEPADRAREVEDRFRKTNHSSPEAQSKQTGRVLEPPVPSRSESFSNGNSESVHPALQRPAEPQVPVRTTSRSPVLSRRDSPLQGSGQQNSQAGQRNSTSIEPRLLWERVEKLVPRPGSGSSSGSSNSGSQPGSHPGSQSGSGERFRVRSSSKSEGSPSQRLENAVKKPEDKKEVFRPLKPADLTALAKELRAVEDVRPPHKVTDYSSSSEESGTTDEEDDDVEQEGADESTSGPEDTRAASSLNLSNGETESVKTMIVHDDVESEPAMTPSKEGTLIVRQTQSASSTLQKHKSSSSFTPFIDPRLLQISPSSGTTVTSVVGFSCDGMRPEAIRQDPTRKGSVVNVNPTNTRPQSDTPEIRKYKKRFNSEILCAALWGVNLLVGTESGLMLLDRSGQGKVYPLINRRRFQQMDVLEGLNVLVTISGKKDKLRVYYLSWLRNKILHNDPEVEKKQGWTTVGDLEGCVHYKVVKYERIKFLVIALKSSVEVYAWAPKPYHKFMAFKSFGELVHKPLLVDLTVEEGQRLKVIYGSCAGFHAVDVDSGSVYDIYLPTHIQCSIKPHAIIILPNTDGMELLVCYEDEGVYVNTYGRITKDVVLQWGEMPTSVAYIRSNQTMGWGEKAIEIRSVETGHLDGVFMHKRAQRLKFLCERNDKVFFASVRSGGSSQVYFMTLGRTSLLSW
Calcium/calmodulin-dependent protein kinase type 1 (Homo sapiens), sequence (Q14012 whole entry, looked up): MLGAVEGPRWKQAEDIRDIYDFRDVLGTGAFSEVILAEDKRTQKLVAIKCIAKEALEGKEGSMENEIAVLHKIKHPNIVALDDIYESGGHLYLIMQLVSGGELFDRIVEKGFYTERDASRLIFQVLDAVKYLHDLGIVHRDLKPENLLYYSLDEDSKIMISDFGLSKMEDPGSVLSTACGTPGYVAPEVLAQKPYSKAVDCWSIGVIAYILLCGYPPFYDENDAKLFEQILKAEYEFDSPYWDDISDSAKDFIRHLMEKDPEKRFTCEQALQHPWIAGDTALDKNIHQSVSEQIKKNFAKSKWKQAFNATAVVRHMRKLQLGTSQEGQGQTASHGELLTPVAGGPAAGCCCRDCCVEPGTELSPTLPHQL
Cyclin-dependent kinase 5 (Homo sapiens), sequence (Q00535 whole entry, looked up, the tested form may be a part): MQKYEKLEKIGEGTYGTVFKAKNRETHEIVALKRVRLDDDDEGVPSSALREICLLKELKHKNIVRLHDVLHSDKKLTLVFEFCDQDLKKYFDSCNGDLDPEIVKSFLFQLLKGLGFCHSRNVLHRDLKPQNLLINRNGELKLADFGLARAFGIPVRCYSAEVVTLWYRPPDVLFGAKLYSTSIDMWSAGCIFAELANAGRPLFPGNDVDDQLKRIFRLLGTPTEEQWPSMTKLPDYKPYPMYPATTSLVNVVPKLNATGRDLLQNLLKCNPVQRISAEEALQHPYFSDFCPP
Serine/threonine-protein kinase OSR1 (Homo sapiens), sequence (O95747 whole entry, looked up, the tested form may be a part): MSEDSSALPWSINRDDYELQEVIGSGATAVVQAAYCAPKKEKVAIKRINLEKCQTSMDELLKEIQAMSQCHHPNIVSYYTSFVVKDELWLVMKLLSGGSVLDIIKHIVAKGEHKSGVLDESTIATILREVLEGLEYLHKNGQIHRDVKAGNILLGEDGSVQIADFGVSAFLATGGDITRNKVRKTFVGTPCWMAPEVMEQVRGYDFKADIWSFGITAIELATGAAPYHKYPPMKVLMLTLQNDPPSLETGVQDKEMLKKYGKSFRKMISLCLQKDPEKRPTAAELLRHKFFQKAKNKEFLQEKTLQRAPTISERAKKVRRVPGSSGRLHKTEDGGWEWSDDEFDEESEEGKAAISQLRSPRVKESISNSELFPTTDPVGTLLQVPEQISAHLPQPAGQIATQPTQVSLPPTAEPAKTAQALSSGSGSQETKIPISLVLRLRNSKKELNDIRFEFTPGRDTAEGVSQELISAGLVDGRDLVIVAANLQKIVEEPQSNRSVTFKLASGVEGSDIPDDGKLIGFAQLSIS
Serine/threonine-protein kinase PAK 6 (Homo sapiens), sequence (Q9NQU5 whole entry, looked up): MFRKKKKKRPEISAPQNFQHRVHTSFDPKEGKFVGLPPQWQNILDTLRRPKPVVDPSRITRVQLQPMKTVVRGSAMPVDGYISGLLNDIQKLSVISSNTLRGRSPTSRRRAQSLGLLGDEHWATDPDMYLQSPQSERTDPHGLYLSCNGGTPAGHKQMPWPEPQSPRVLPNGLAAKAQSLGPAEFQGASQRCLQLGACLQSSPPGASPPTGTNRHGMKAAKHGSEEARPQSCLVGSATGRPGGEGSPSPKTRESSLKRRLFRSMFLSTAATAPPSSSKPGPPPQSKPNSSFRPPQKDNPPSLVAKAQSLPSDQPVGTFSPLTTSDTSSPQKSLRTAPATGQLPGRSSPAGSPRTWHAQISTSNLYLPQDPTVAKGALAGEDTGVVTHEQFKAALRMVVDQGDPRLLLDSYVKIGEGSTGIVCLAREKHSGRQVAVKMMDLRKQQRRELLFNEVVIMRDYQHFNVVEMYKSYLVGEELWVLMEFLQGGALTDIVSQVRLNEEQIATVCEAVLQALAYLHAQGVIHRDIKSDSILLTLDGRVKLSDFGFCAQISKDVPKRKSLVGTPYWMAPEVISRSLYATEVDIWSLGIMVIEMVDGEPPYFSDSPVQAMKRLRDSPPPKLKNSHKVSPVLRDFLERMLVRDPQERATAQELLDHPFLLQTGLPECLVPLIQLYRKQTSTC
Calcium/calmodulin-dependent protein kinase type II subunit alpha (Homo sapiens), sequence (Q9UQM7 whole entry): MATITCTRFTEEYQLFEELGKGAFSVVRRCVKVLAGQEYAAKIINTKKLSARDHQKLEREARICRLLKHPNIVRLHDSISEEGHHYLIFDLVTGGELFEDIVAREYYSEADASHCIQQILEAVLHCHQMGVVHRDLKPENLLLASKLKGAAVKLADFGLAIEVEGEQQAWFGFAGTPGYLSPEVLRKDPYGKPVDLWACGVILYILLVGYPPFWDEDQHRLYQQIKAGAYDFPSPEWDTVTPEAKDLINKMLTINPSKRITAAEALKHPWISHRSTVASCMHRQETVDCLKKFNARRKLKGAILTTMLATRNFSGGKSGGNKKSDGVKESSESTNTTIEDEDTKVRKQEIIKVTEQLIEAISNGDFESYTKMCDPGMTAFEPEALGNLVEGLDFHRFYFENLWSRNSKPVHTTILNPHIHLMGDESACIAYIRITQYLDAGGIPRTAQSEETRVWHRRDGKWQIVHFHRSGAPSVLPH

**Q.** Which results are given for `CCN1CCN(Cc2ccc(NC(=O)c3ccc(C)c(Oc4ccnc5[nH]ccc45)c3)cc2C(F)(F)F)CC1`?
**A.** inhibition [1]: 11.7%; inhibition [2]: 5.8%; inhibition [3]: 48.2%; inhibition [4]: inactive; inhibition [5]: inactive; inhibition [6]: -7.6%; inhibition [7]: inactive; inhibition [8]: inactive

**Q.** For `CCN1CCN(Cc2ccc(NC(=O)c3ccc(C)c(/C=C/c4cnc5[nH]ccc5c4OC)c3)cc2C(F)(F)F)CC1`, which inhibition [9] is on record?
**A.** -9.6%

**Q.** And the inhibition [10]?
**A.** 0%

**Q.** What about the residual activity [11] of the same compound?
**A.** 23%

**Q.** `CNc1cc(Oc2cc(C(=O)Nc3cc(N4CCN(C)CC4)cc(C(F)(F)F)c3)ccc2C)ncn1` was tested. Which inhibition [12] did it give?
**A.** 15.6%

**Q.** What about the inhibition [13] of the same compound?
**A.** 0.3%

**Q.** And the inhibition [14]?
**A.** 57.3%

**Q.** And the inhibition [15]?
**A.** -2%
